{"source": "patent US6762174B1", "about": "(priority 1998, dated 2004)", "key": {"[1]": {"system": "B16 melanoma", "type": "in vivo, female BDF1 mice", "settings": "for Statistically Significant Effect on Reducing Tumor Volume: cp alone"}, "[2]": {"system": "MT-1 breast cancer xenograft", "settings": "for Died of toxic effects: 8 mice"}}, "note": "Like-named read-outs stand apart in the source and are kept apart here."}
{"smiles": "O=P1(N(CCCl)CCCl)NCCCO1", "note": "(centres unmarked) [cp, cyclophosphamide]", "values": [{"measurement": "Percent of Animals with Greater than 10 Metastases", "setting": "[1]; Cp 200 mg/kg", "value": 50, "unit": "%"}, {"measurement": "animals with 0-10 Metastases on Day 42", "setting": "[1]; Cp 200 mg/kg", "value": 4}, {"measurement": "animals with 11-20 Metastases on Day 42", "setting": "[1]; Cp 200 mg/kg", "value": 3}, {"measurement": "animals with 21-30 Metastases on Day 42", "setting": "[1]; Cp 200 mg/kg", "value": 0}, {"measurement": "animals with over 30 Metastases (full of metastases) on Day 42", "setting": "[1]; Cp 200 mg/kg", "value": 1}, {"measurement": "Primary Tumor Size (Median RTV)", "setting": "[1]; cp 200 mg/kg alone, day 0", "value": 1}, {"measurement": "Primary Tumor Size (Median RTV)", "setting": "[1]; cp 200 mg/kg alone, day 4", "value": 1.0}, {"measurement": "Primary Tumor Size (Median RTV)", "setting": "[1]; cp 200 mg/kg alone, day 7", "value": 2.4}, {"measurement": "Primary Tumor Size (Median RTV)", "setting": "[1]; cp 200 mg/kg alone, day 10", "value": 3.5}, {"measurement": "Primary Tumor Size (Median RTV)", "setting": "[1]; cp 200 mg/kg alone, day 14", "value": 12.9}, {"measurement": "Primary Tumor Size (Median RTV)", "setting": "[1]; cp 200 mg/kg alone, day 17", "value": 32.6}, {"measurement": "T/C ratio for medium tumor volume", "setting": "[1]; cp 200 mg/kg alone, day 17", "value": 82.3, "unit": "%"}, {"measurement": "Statistically Significant Effect on Reducing Tumor Volume", "setting": "[1]; DAY 7", "value": "No"}, {"measurement": "Statistically Significant Effect on Reducing Tumor Volume", "setting": "[1]; DAY 10", "value": "Yes"}, {"measurement": "Statistically Significant Effect on Reducing Tumor Volume", "setting": "[1]; DAY 14", "value": "Yes"}, {"measurement": "Statistically Significant Effect on Reducing Tumor Volume", "setting": "[1]; DAY 17", "value": "No"}, {"measurement": "Median Relative Tumor Volume", "setting": "[2]; 100 mg/kg cp, day 42", "value": 1}, {"measurement": "Median Relative Tumor Volume", "setting": "[2]; 100 mg/kg cp, day 46", "value": 1.37}, {"measurement": "Median Relative Tumor Volume", "setting": "[2]; 100 mg/kg cp, day 49", "value": 1.54}, {"measurement": "Median Relative Tumor Volume", "setting": "[2]; 100 mg/kg cp, day 53", "value": 1.50}, {"measurement": "Median Relative Tumor Volume", "setting": "[2]; 100 mg/kg cp, day 59", "value": 1.85}, {"measurement": "Median Relative Tumor Volume", "setting": "[2]; 200 mg/kg cp, day 42", "value": 1}, {"measurement": "Median Relative Tumor Volume", "setting": "[2]; 200 mg/kg cp, day 46", "value": 1.15}, {"measurement": "Median Relative Tumor Volume", "setting": "[2]; 200 mg/kg cp, day 49", "value": 1.11}, {"measurement": "Median Relative Tumor Volume", "setting": "[2]; 200 mg/kg cp, day 53", "value": 1.21}, {"measurement": "Median Relative Tumor Volume", "setting": "[2]; 200 mg/kg cp, day 59", "value": 1.15}, {"measurement": "Median Relative Tumor Volume", "setting": "[2]; 300 mg/kg cp, day 42", "value": 1}, {"measurement": "Median Relative Tumor Volume", "setting": "[2]; 300 mg/kg cp, day 46", "value": 1.34}, {"measurement": "Median Relative Tumor Volume", "setting": "[2]; 300 mg/kg cp, day 49", "value": 1.14}, {"measurement": "Median Relative Tumor Volume", "setting": "[2]; 300 mg/kg cp, day 53", "value": 1.15}, {"measurement": "Median Relative Tumor Volume", "setting": "[2]; 300 mg/kg cp, day 59", "value": 1.14}, {"measurement": "T/C RTV d 49", "setting": "[2]; Cp 100 mg/kg", "value": 87, "unit": "%"}, {"measurement": "T/C RTV d 59", "setting": "[2]; Cp 100 mg/kg", "value": 81, "unit": "%"}, {"measurement": "WBC d 46", "setting": "[2]; Cp 100 mg/kg", "value": "10.3 10^6/mL"}, {"measurement": "T/C RTV d 49", "setting": "[2]; Cp 200 mg/kg", "value": 63, "unit": "%"}, {"measurement": "T/C RTV d 59", "setting": "[2]; Cp 200 mg/kg", "value": 50, "unit": "%"}, {"measurement": "WBC d 46", "setting": "[2]; Cp 200 mg/kg", "value": "5.5 10^6/mL"}, {"measurement": "Last 2 readings indicate progression", "setting": "[2]; Cp 300 mg/kg", "value": 12, "unit": "%"}, {"measurement": "Last 2 readings indicate regression", "setting": "[2]; Cp 300 mg/kg", "value": 12, "unit": "%"}, {"measurement": "Last 2 readings stayed the same", "setting": "[2]; Cp 300 mg/kg", "value": 0, "unit": "%"}, {"measurement": "Last reading indicates progression", "setting": "[2]; Cp 300 mg/kg", "value": 25, "unit": "%"}, {"measurement": "Last reading indicates regression", "setting": "[2]; Cp 300 mg/kg", "value": 25, "unit": "%"}, {"measurement": "T/C RTV d 49", "setting": "[2]; Cp 300 mg/kg", "value": 65, "unit": "%"}, {"measurement": "T/C RTV d 59", "setting": "[2]; Cp 300 mg/kg", "value": 50, "unit": "%"}, {"measurement": "WBC d 46", "setting": "[2]; Cp 300 mg/kg", "value": "5.6 10^6/mL"}, {"measurement": "Died of toxic effects", "setting": "[2]; Cp 300 mg/kg", "value": 25, "unit": "%"}, {"measurement": "Died of toxic effects", "setting": "[2]; Cp 300 mg/kg, listed as Cp", "value": 25, "unit": "%"}]}
